Experimental findings from US11306098B2, “Substituted pyrrolo[1,2-a]pyrazines and pyrrolo[1,2-a][1,4]diazepines as TREX1 inhibitors” (VENENUM BIODESIGN, LLC, priority 2019, dated 2022) are described below.

Assay [1] relates to THP1 Dual cells (ISRE Lucia reporter, cGAS-STING pathway). The assay can be described thus: THP1 monocyte assay, ISRE Lucia luciferase reporter. The format is cell-based, human. As to conditions: 48 hours, luciferase signal versus control wells without compound. From the text: Example C is a cell-based assay for TREX1 inhibitors using THP1 Dual™ cells (Invivogen), a human monocyte cell line that has stable integration of an Interferon Stimulated Response Element (ISRE) Lucia reporter gene. The Lucia gene encodes a secreted luciferase reporter protein, under the control of an ISG54 minimal promoter in conjunction with five IFN-stimulated response elements. Activation of the cGAS-STING pathway in THP1 Dual™ cells leads to enhanced luciferase secretion and increased luminescence.
A cell-based assay was established using THP1 Dual™ cells (Invivogen), a human monocyte cell line that has stable integration of an Interferon Stimulated Response Element (ISRE) Lucia reporter gene. The Lucia gene encodes a secreted luciferase reporter protein, under the control of an ISG54 minimal promoter in conjunction with five IFN-stimulated response elements. Activation of the cGAS-STING pathway in these cells leads to enhanced luciferase secretion. The assay was conducted in standard 384-well white tissue culture plates. Cells (25,000 in 25 μL RPMI 1640 containing 10% Heat-Inactivated FBS, 1× Glutagro, 10 mM HEPES, 1 mM sodium pyruvate, 1× Pen/Strep, 100 μg/mL Normocin, 100 μg/mL Zeocin, 10 μg/mL Blasticidin) were added to the plate followed by 25 μL of compound in the same media+0.2% DMSO. The assay was incubated for 48 hours at 37° C. in 5% CO2. An aliquot of 5 μl was removed to combine with 12.5 μL of the luciferase detection reagent, QUANTI-Luc™ Gold (Invivogen) in a white 384-well plate. The luminescent signal was then read using an EnVision plate reader (Perkin Elmer). The fold activation was calculated by dividing the signal in wells containing test compound by the signal in the control wells without compound (see Table 7).

The target in assay [2] is human TREX1 (Homo sapiens (Human), UniProt Q9NSU2). The experiment in a line: TREX1 Exonuclease Assay (human enzyme). The format is biochemical. The conditions noted are these: human TREX1 0.5 nM, FAM/BHQ1-labeled DNA oligonucleotide. How it is done:
(§1) The TREX1 Exonuclease assay is an exemplary in vitro assay for measuring the activity of the TREX1 inhibitors of the present invention. In this assay, TREX1 exonuclease activity was evaluated by measuring the increase in fluorescence resulting from TREX1-catalyzed removal of a quencher from the 3′ end of a FAM-labeled DNA oligonucleotide (5′FAM-CCA CGA GAG CGT-BHQ1-3′). The assay was conducted using Wild Type (WT) human or murine TREX1 enzyme constructs corresponding to amino acids 55-297 of UniProt ID Q9NSU2-1 (SEQ ID NO: 1), or amino acids 1-242 of UniProt ID Q91XB0-1 (SEQ ID NO: 2), respectively. See, e.g., Example A.
(§2) For human TREX1, the nucleotide sequence of the gene construct was codon optimized for expression in the bacterial host. The sequence was incorporated into the pMAL-c5e vector (NEB) downstream of a solubility-promoting MBP (maltose binding protein) fusion partner. The fusion protein product was expressed in E. coli strain BL21 (DE3) (Millipore) and purified in a series of chromatographic steps. Initial steps were conducted using a dextrin sepharose affinity column followed by a Q-sepharose ion exchange column (both GE Healthcare). After the second column the MBP partner was removed by incubation with enterokinase (NEB). Further purification was carried out with the second application of a Q-sepharose column followed by a Superdex 75 (GE Healthcare) size exclusion column. Finally, a heparin sepharose column (GE Healthcare) was applied to remove contaminating nucleotides. Similar methods were used in the preparation of the murine TREX1 enzyme and are described in Example B set forth below.
(§3) To evaluate the effect of compounds on TREX1 activity, test compounds were serially diluted (11-point, 3-fold) from 10 mM stock solutions and delivered to 384-well low-volume assay plates in 80 nL DMSO using an acoustic dispenser. Next, 4 μL of human TREX1 (0.5 nM), or murine TREX1 (1 nM), diluted in assay buffer (20 mM Tris pH 7.5, 5 mM MgCl2, 100 μg/mL BSA, 0.002% Triton X-100, 2 mM DTT), was added to the assay plate. After incubating for 30 minutes, 4 μL of labeled DNA oligonucleotide (500 nM) in assay buffer was added to initiate TREX1 exonuclease activity. The reaction was allowed to proceed for 45 minutes at room temperature prior to the addition of 4 μL of 150 mM EDTA to halt TREX1 activity. Assay plates were equilibrated for an additional 30 minutes and read on an EnVision Plate Reader (Perkin Elmer) to measure fluorescence emission at 535 nm following excitation at 485 nm. Fluorescence was plotted as a function of log molar compound concentration and fit to four-parameter dose-response equation to determine compound IC50.

Assay [3] concerns interferon stimulated genes (ISGs) in THP1 Dual cells. The assay can be described thus: RT-qPCR assay of interferon stimulated gene expression. The assay is classed as cell-based, human. The conditions noted are these: substance alone, 24 hours, normalized to GAPDH, unstimulated control = 1. From the text:
Example D is a cell based assay that measures the increase in the expression of interferon stimulated genes (ISG) by RT-qPCR that are induced by TREX1 inhibitors when THP1 Dual™ cells are transfected with double-stranded DNA. The double stranded DNA used to transfect cells was VACV-70 (Invivogen), a 70 base pair oligonucleotide containing viral DNA motifs (Unterholzner L. et al., 2010. IFI16 is an innate immune sensor for intracellular DNA. Nat Immunol. 11(11):997-1004). Activation of cGAS-STING pathway in THP1 Dual™ cells increases the expression of ISGs.
The RT-qPCR assay was used to assess the ability of TREX1 inhibitors to enhance the expression of interferon stimulated genes (ISGs) in cells transfected with double-stranded DNA. The double stranded DNA used to transfect cells was VACV-70 (Invivogen), a 70 base pair oligonucleotide containing viral DNA motifs (Unterholzner L. et al., 2010. IFI16 is an innate immune sensor for intracellular DNA. Nat Immunol. 11(11):997-1004). Human THP1 Dual™ cells (Invivogen), were treated with test compound in the presence or absence of 1,200 ng/mL VACV-70, or with VACV-70 alone, for 24 hours. Cells were harvested by centrifugation and washed with phosphate buffer saline. Total RNA was isolated using Qiagen RNeasy mini kit. Genomic DNA was degraded using Thermo Scientific DNase 1 kit. Total RNA was quantified using a Nanodrop spectrophotometer. Using equal amounts of RNA, cDNA was synthesized using Invitrogen Superstrand III First Strand synthesis kit. Target and reference gene expression levels were determined by RT-qPCR using TaqMan gene expression assays and a Stratagene Mx3005P QPCR system (all reagents were from TaqMan, Applied Biosystems). Data were analyzed by the Comparative CT method. GAPDH was used for normalization. Target genes that were analyzed included interferon stimulated genes (INF-β, CXCL10, IFIT1, IFIT2, IFIT3, IFI44, and IFI44L).
(In general: Real-time PCR tracks product formation cycle by cycle.)

Assay [4] has as its target murine TREX1 (Mus musculus (Mouse), UniProt Q91XB0). The assay can be described thus: TREX1 Exonuclease Assay (murine enzyme). The assay is classed as biochemical. As to conditions: murine TREX1 1 nM, FAM/BHQ1-labeled DNA oligonucleotide. How it is done: as §1, §2, §3

SMILES strings stand for the structures.

human TREX1, sequence (Q9NSU2 1-242): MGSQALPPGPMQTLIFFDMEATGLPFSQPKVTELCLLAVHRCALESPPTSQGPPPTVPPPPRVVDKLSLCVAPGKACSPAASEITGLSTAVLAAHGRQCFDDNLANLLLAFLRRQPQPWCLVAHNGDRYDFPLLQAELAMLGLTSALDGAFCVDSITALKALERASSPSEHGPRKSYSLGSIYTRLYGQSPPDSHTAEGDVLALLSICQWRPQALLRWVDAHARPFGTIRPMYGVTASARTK
murine TREX1, sequence (Q91XB0 1-242): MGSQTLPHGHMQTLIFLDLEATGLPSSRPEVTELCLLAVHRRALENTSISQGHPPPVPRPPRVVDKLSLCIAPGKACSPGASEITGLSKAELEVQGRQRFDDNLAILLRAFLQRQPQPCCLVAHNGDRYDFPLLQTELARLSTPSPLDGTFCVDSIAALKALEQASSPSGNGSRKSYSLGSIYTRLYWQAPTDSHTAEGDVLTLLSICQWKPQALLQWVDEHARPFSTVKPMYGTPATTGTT

Usually IC50 stands for the concentration that inhibits the measured activity by half. Regarding `NC(=O)CC[C@H](C(=O)NCc1ccc(Cl)c(Cl)c1)N1CCC(CCc2ccccc2)N2C[C@H](N)C[C@H]2C1=O` (some centres unmarked) [Example 16], the “Fold activation @ 10 μM” value in assay [1] amounted to 4. In assay [2], the IC50 is less than 1000 nM. Further, in assay [3], the CXCL10 expression is reported as 2, the IFI44L expression was determined as 15, the IFI44 expression is 14 and the IFIT1 expression stood at 11. In assay [3], this compound showed an IFIT2 expression of 41, an IFIT3 expression of 25 and an IFN-β expression of 6. The compound further showed an IC50 in assay [4] of less than 1000 nM.

In the case of `N[C@@H]1C[C@H]2C(=O)N([C@H](CCc3nnn[nH]3)C(=O)NCc3ccc(Cl)c(Cl)c3)CCC(CCc3ccccc3)N2C1` (some centres unmarked) [Example 36], the “Fold activation @ 10 μM” value in assay [1] stood at 7. For the same compound, the IC50 in assay [2] was less than 1000 nM. In assay [3], the CXCL10 expression is on record as 2, the IFI44L expression is given as 16, the IFI44 expression was 20 and the IFIT1 expression came out at 8. In assay [3], this compound showed an IFIT2 expression of 26, an IFIT3 expression of 16 and an IFN-β expression of 3. Also, the IC50 in assay [4] is less than 1000 nM.
